# Reference: ChEMBL document CHEMBL4840358, “Discovery of Modified Amidate (ProTide) Prodrugs of Tenofovir with Enhanced Antiviral Properties” (J Med Chem, 2021)
# Experiments:
# [1] = test system: Human immunodeficiency virus 1; assay: Antiviral activity against HIV-1 infected in MT4 cells assessed as reduction in virus-induced cytopathic effect preincubated for 1 hr followed by viral infection and measured after 5 days by XTT assay; format: functional, organism-based; settings: Human immunodeficiency virus 1, MT4
# [2] = Cytotoxicity against in human MT4 cells after 5 days by XTT assay; format: cell-based; settings: time 5 day
# Hepatitis B virus = assay: Antiviral activity against HBV infected in human HepG2-hNTCP cells assessed as reduction in HBV DNA incubated for day 1 followed by compound washout and fresh compound addition on following day and day 3, 6 and 10 measured on day 14 post infection by qPCR analysis; format: functional, organism-based
# [3] = Cytotoxicity against human HepG2-hNTCP cells incubated for 3 days by XTT assay; format: cell-based; settings: time 3 day
# [4] = Selectivity index, ratio of CC50 for human MT-4 cells to EC50 for HIV-1 infected in MT-4 cells; format: toxicity, cell-based; settings: read-out: Ratio CC50/EC50
SMILES,EC50 [1],CC50 at 120 h [2],EC50 (Hepatitis B virus),CC50 at 72 h [3],selectivity ratio [4]
COC(=O)[C@H](Cc1ccc(O[P@](=O)(CO[C@H](C)Cn2cnc3c(N)ncnc32)N[C@@H](C)C(=O)OC(C)C)cc1)NC(=O)OCc1ccccc1,0.03 µM,8.5 µM,–,–,–
COC(=O)[C@@H](N)Cc1ccc(O[P@@](=O)(CO[C@H](C)Cn2cnc3c(N)ncnc32)N[C@@H](C)C(=O)OC(C)C)cc1,0.35 µM,> 50 µM,–,–,–
CC(C)OC(=O)[C@H](C)N[P@@](=O)(CO[C@H](C)Cn1cnc2c(N)ncnc21)Oc1ccc(C[C@H](NCCCc2ccccc2)C(=O)OC2CCCC2)cc1,0.00068 µM,7.6 µM,0.004 µM,> 50 µM,–
COC(=O)[C@H](Cc1ccc(O[P@@](=O)(CO[C@H](C)Cn2cnc3c(N)ncnc32)N[C@@H](C)C(=O)OC(C)C)cc1)NC(=O)C(F)(F)F,0.15 µM,> 50 µM,0.00027 µM,> 50 µM,–
CC(C)OC(=O)[C@H](C)N[P@](=O)(CO[C@H](C)Cn1cnc2c(N)ncnc21)Oc1ccc(C[C@H](NC(=O)OCc2ccccc2)C(=O)OC(C)C)cc1,0.0006 µM,10 µM,–,–,16700
CC(C)OC(=O)[C@H](C)N[P@@](=O)(CO[C@H](C)Cn1cnc2c(N)ncnc21)Oc1ccc(C[C@H](NC(=O)OCc2ccccc2)C(=O)OC(C)C)cc1,0.027 µM,13 µM,–,–,–
COC(=O)[C@H](Cc1ccc(O[P@](=O)(CO[C@H](C)Cn2cnc3c(N)ncnc32)N[C@@H](C)C(=O)OC(C)C)cc1)NC(=O)c1ccccc1,0.072 µM,> 50 µM,–,–,–
CCCCCCOC(=O)[C@H](Cc1ccc(O[P@](=O)(CO[C@H](C)Cn2cnc3c(N)ncnc32)N[C@@H](C)C(=O)OC(C)C)cc1)NC(=O)OCc1ccccc1,0.023 µM,17 µM,–,–,–
COC(=O)[C@H](Cc1ccc(OP(=O)(CO[C@H](C)Cn2cnc3c(N)ncnc32)N[C@@H](C)C(=O)OC(C)C)cc1)NC(=O)OCc1ccccc1 (some centres not stated),–,–,0.0006 µM,15 µM,–
CC(C)OC(=O)[C@H](C)N[P@@](=O)(CO[C@H](C)Cn1cnc2c(N)ncnc21)Oc1ccc(C[C@@H](NC(=O)OCc2ccccc2)C(=O)OC2CCCC2)cc1,0.00033 µM,15 µM,–,–,45500
CCC(CC)COC(=O)[C@H](Cc1ccc(O[P@](=O)(CO[C@H](C)Cn2cnc3c(N)ncnc32)N[C@@H](C)C(=O)OC(C)C)cc1)NC(=O)OCc1ccccc1,0.036 µM,38 µM,–,–,–
CC(C)CCOC(=O)[C@H](Cc1ccc(O[P@](=O)(CO[C@H](C)Cn2cnc3c(N)ncnc32)N[C@@H](C)C(=O)OC(C)C)cc1)NC(=O)OCc1ccccc1,0.011 µM,24 µM,–,–,–
CC(C)OC(=O)[C@H](C)N[P@](=O)(CO[C@H](C)Cn1cnc2c(N)ncnc21)Oc1ccc(C[C@H](NC(=O)OCc2ccccc2)C(=O)OC2CCCCC2)cc1,0.0084 µM,9.1 µM,–,–,–
CCC(CC)COC(=O)[C@H](Cc1ccc(O[P@@](=O)(CO[C@H](C)Cn2cnc3c(N)ncnc32)N[C@@H](C)C(=O)OC(C)C)cc1)NC(=O)OCc1ccccc1,0.05 µM,38 µM,–,–,–
CC(C)OC(=O)[C@H](C)NP(=O)(CO[C@H](C)Cn1cnc2c(N)ncnc21)Oc1ccc(C[C@H](NC(=O)OCc2ccccc2)C(=O)OCc2ccccc2)cc1 (some centres not stated),0.009 µM,10 µM,–,–,–
CC(C)OC(=O)[C@H](C)NP(=O)(CO[C@H](C)Cn1cnc2c(N)ncnc21)Oc1ccc(C[C@H](NC(=O)OCc2ccccc2)C(=O)OCc2cccs2)cc1 (some centres not stated),0.0034 µM,8.2 µM,–,–,–
CC(C)CCOC(=O)[C@H](Cc1ccc(O[P@@](=O)(CO[C@H](C)Cn2cnc3c(N)ncnc32)N[C@@H](C)C(=O)OC(C)C)cc1)NC(=O)OCc1ccccc1,0.00056 µM,8 µM,–,–,14300
CC(C)OC(=O)[C@H](C)N[P@@](=O)(CO[C@H](C)Cn1cnc2c(N)ncnc21)Oc1ccc(C[C@H](NC(=O)OCc2ccccc2)C(=O)OC2CCCCC2)cc1,0.021 µM,14 µM,–,–,–
CC(C)OC(=O)[C@H](C)NP(=O)(CO[C@H](C)Cn1cnc2c(N)ncnc21)Oc1ccc(C[C@H](NC(=O)OCc2ccccc2)C(=O)OC(C)(C)C)cc1 (some centres not stated),0.013 µM,6.6 µM,–,–,–
CC(C)OC(=O)[C@H](C)NP(=O)(CO[C@H](C)Cn1cnc2c(N)ncnc21)Oc1ccc(C[C@H](NC(=O)OCc2ccccc2)C(=O)OC(C)C)cc1 (some centres not stated),0.0016 µM,9.4 µM,0.0042 µM,> 50 µM,–
CC(C)CCOC(=O)[C@H](Cc1ccc(OP(=O)(CO[C@H](C)Cn2cnc3c(N)ncnc32)N[C@@H](C)C(=O)OC(C)C)cc1)NC(=O)OCc1ccccc1 (some centres not stated),0.0004 µM,8.4 µM,0.0002 µM,> 50 µM,–
COC(=O)[C@H](Cc1ccc(O[P@](=O)(CO[C@H](C)Cn2cnc3c(N)ncnc32)N[C@@H](C)C(=O)OC(C)C)cc1)NC(=O)C(F)(F)F,0.54 µM,> 50 µM,0.0016 µM,> 50 µM,–

SMILES,EC50 [1],CC50 at 120 h [2],EC50 (Hepatitis B virus),CC50 at 72 h [3],selectivity ratio [4]
COC(=O)[C@H](Cc1ccc(O[P@](=O)(CO[C@H](C)Cn2cnc3c(N)ncnc32)N[C@@H](C)C(=O)OC(C)C)cc1)N1CCCC1,0.011 µM,24 µM,–,–,–
COC(=O)[C@H](Cc1ccc(O[P@@](=O)(CO[C@H](C)Cn2cnc3c(N)ncnc32)N[C@@H](C)C(=O)OC(C)C)cc1)N(C)C,0.048 µM,38 µM,–,–,–
CC(C)OC(=O)[C@H](C)NP(=O)(CO[C@H](C)Cn1cnc2c(N)ncnc21)Oc1ccc(C[C@@H](C(=O)CC2CCCC2)N(CCCc2ccccc2)Cc2ccccc2)cc1 (some centres not stated),–,–,0.0013 µM,46 µM,–
COC(=O)[C@H](Cc1ccc(O[P@](=O)(CO[C@H](C)Cn2cnc3c(N)ncnc32)N[C@@H](C)C(=O)OC(C)C)cc1)NC(C)=O,2.2 µM,> 50 µM,0.0072 µM,> 50 µM,–
CC(C)OC(=O)[C@H](C)N[P@@](=O)(CO[C@H](C)Cn1cnc2c(N)ncnc21)Oc1ccc(C[C@H](NC(=O)OCc2ccccc2)C(=O)NC2CCCC2)cc1,0.01 µM,17 µM,–,–,–
CC(C)OC(=O)[C@H](C)N[P@](=O)(CO[C@H](C)Cn1cnc2c(N)ncnc21)Oc1ccc(C[C@@H](NC(=O)OCc2ccccc2)C(=O)OC2CCCC2)cc1,0.00067 µM,20 µM,–,–,–
COC(=O)[C@H](Cc1ccc(O[P@](=O)(CO[C@H](C)Cn2cnc3c(N)ncnc32)N[C@@H](C)C(=O)OC(C)C)cc1)N(C)C,2.5 µM,> 50 µM,–,–,–
CCOC(=O)[C@H](Cc1ccc(OP(=O)(CO[C@H](C)Cn2cnc3c(N)ncnc32)N[C@@H](C)C(=O)OC(C)C)cc1)NC(=O)OCc1ccccc1 (some centres not stated),0.017 µM,11 µM,0.0036 µM,> 50 µM,–
CCCCCCOC(=O)[C@H](Cc1ccc(O[P@@](=O)(CO[C@H](C)Cn2cnc3c(N)ncnc32)N[C@@H](C)C(=O)OC(C)C)cc1)NC(=O)OCc1ccccc1,0.016 µM,13 µM,–,–,–
COC(=O)[C@H](Cc1ccc(O[P@@](=O)(CO[C@H](C)Cn2cnc3c(N)ncnc32)N[C@@H](C)C(=O)OC(C)C)cc1)NC(=O)OCc1ccccc1,0.016 µM,16 µM,–,–,–
COCCOCCOCCOC(=O)[C@H](Cc1ccc(OP(=O)(CO[C@H](C)Cn2cnc3c(N)ncnc32)N[C@@H](C)C(=O)OC(C)C)cc1)NC(=O)OCc1ccccc1 (some centres not stated),0.47 µM,> 50 µM,–,–,–
CCCCCCOC(=O)[C@H](Cc1ccc(OP(=O)(CO[C@H](C)Cn2cnc3c(N)ncnc32)N[C@@H](C)C(=O)OC(C)C)cc1)NC(=O)OCc1ccccc1 (some centres not stated),0.0018 µM,8.4 µM,0.0014 µM,> 50 µM,–
CC(C)OC(=O)[C@H](C)NP(=O)(CO[C@H](C)Cn1cnc2c(N)ncnc21)Oc1ccc(C[C@@H](C(=O)OC2CCCC2)N(CCCc2ccccc2)Cc2ccccc2)cc1 (some centres not stated),–,–,0.0012 µM,> 50 µM,–
CC(C)OC(=O)[C@H](C)N[P@](=O)(CO[C@H](C)Cn1cnc2c(N)ncnc21)Oc1ccc(C[C@H](NC(=O)OCc2ccccc2)C(=O)NC2CCCC2)cc1,0.013 µM,28 µM,–,–,2150
COC(=O)[C@H](Cc1ccc(O[P@@](=O)(CO[C@H](C)Cn2cnc3c(N)ncnc32)N[C@@H](C)C(=O)OC(C)C)cc1)NC(=O)c1ccccc1,0.084 µM,> 50 µM,–,–,–
CC(C)OC(=O)[C@H](C)NP(=O)(CO[C@H](C)Cn1cnc2c(N)ncnc21)Oc1ccc(C[C@H](NC(=O)OCc2ccccc2)C(=O)OC2CCCC2)cc1 (some centres not stated),0.0009 µM,8.3 µM,0.0007 µM,> 50 µM,–
COC(=O)[C@H](Cc1ccc(O[P@@](=O)(CO[C@H](C)Cn2cnc3c(N)ncnc32)N[C@@H](C)C(=O)OC(C)C)cc1)N1CCCC1,0.016 µM,27 µM,–,–,–
COC(=O)[C@H](Cc1ccc(O[P@@](=O)(CO[C@H](C)Cn2cnc3c(N)ncnc32)N[C@@H](C)C(=O)OC(C)C)cc1)NC(C)=O,0.72 µM,> 50 µM,0.0032 µM,> 50 µM,–
COC(=O)[C@@H](N)Cc1ccc(O[P@](=O)(CO[C@H](C)Cn2cnc3c(N)ncnc32)N[C@@H](C)C(=O)OC(C)C)cc1,0.65 µM,> 50 µM,–,–,–
CCCCCCCCOC(=O)[C@H](Cc1ccc(OP(=O)(CO[C@H](C)Cn2cnc3c(N)ncnc32)N[C@@H](C)C(=O)OC(C)C)cc1)NC(=O)OCc1ccccc1 (some centres not stated),0.038 µM,27 µM,–,–,–
CCOC(=O)[C@H](Cc1ccc(O[P@@](=O)(CO[C@H](C)Cn2cnc3c(N)ncnc32)N[C@@H](C)C(=O)OC(C)C)cc1)NC(=O)OCc1ccccc1,0.0033 µM,11 µM,–,–,–
CCOC(=O)[C@H](Cc1ccc(O[P@](=O)(CO[C@H](C)Cn2cnc3c(N)ncnc32)N[C@@H](C)C(=O)OC(C)C)cc1)NC(=O)OCc1ccccc1,0.02 µM,13 µM,–,–,–
